Assays:
[1] = test system: human colorectal carcinoma HCT116 cells; experiment: Anti-proliferation assay (Alamar Blue metabolism), HCT116 cells; settings: for Percent inhibition of Alamar Blue Metabolism in HCT116 cells: 72 h;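 for all read-outs here: cells in 384-well plates exposed to compound combination matrices for 72 h, Alamar Blue fluorescence read (excitation 530 nm), inhibition calculated against mean of vehicle-only wells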
Description: Stock solutions (1000×) of each compound were prepared in DMSO and stored at −20° C. Master stock plates of 2-fold or 4-fold serial dilutions of individual compounds were prepared in 384-well plates. Combination matrices of test compounds were generated from these master stock plates by dilution into growth media described above. […] The combination matrices were used immediately and discarded.
The anti-proliferation assays were performed in 384-well plates. […] Cells were diluted in culture media such that 3,000 SKMEL-28 cells, or 1,500 cells for all the other cell lines, were delivered in 35 μl of media into each assay well. Assay plates were incubated for 16-24 hours 37° C.±0.5° C. with 5% CO2. After incubation, 4.5 μl of 10× stock solutions from the combination matrices were added to 40 μl of culture media. Assay plates were further incubated for 72 hours at 37° C.±0.5° C. with 5% CO2. […] Alamar Blue metabolism was quantified by the amount of fluorescence intensity 3.5-5.0 hours after addition. Quantification, using an LJL Analyst AD reader (LJL Biosystems), was taken in the middle of the well with high attenuation, a 100 msec read time, an excitation filter at 530 nm, and an emission filter at 575 nm. For some experiments, quantification was performed using a Wallac Victor^2 reader. Measurements were taken at the top of the well with stabilized energy lamp control; a 100 msec read time, an excitation filter at 530 nm, and an emission filter at 590 nm.

[2] = test system: human melanoma SKMEL-28 cells; experiment: Anti-proliferation assay (Alamar Blue metabolism), SKMEL-28 cells; assay type: cell-based; settings: 72 h
Source text: (§1) The combination matrices were used immediately and discarded.

[3] = test system: non-small cell lung carcinoma A549 cells; experiment: Anti-proliferation assay (Alamar Blue metabolism), A549 cells; assay type: cell-based; settings: 72 h
Description: Inhibition of proliferation was measured by anti-proliferation assay as described below after incubation with the test compound(s) for 72 hours.
as §1
Cells were diluted in culture media such that 3,000 SKMEL-28 cells, or 1,500 cells for all the other cell lines, were delivered in 35 μl of media into each assay well. Assay plates were incubated for 16-24 hours 37° C.±0.5° C. with 5% CO2. […] Assay plates were further incubated for 72 hours at 37° C.±0.5° C. with 5% CO2. […] Alamar Blue metabolism was quantified by the amount of fluorescence intensity 3.5-5.0 hours after addition.
The percent inhibition (% I) for each well was calculated using the following formula: % I=[(avg. untreated wells−treated well)/(avg. untreated wells)]×100 The average untreated well value (avg. untreated wells) is the arithmetic mean of 40 wells from the same assay plate treated with vehicle alone.

[4] = test system: human pancreatic cancer PANC1 cells; experiment: Anti-proliferation assay (Alamar Blue metabolism), PANC1 cells; assay type: cell-based; settings: 72 h
Source text: as §1

[5] = test system: human prostate cancer DU145 cells; experiment: Anti-proliferation assay (Alamar Blue metabolism), DU145 cells; assay type: cell-based; settings: 72 h
Source text: as §1

## CCC(C)n1ncn(-c2ccc(N3CCN(c4ccc(OCC5COC(Cn6cncn6)(c6ccc(Cl)cc6Cl)O5)cc4)CC3)cc2)c1=O (centres unmarked) [Itraconazole, itraconazole]
[1]; Homo sapiens, HCT-116, read-out: Percent inhibition of Alamar Blue Metabolism, cerivastatin 0 μM, itraconazole 7 μM
  inhibition at 7 µM: 24.3%
[1]; Homo sapiens, HCT-116, read-out: Percent inhibition of Alamar Blue Metabolism, cerivastatin 0 μM, itraconazole 28 μM
  inhibition at 28 µM: 27.7%
[1]; Table 2: itraconazole 0.87 μM + simvastatin at row conc. c1 (0-48 μM)
  Percent inhibition of Alamar Blue Metabolism in HCT116 cells: 3.9%
[1]; Table 2: itraconazole 7 μM + simvastatin at row conc. c1 (0-48 μM)
  Percent inhibition of Alamar Blue Metabolism in HCT116 cells: 18.9%
[1]; Table 2: itraconazole 14 μM + simvastatin at row conc. c1 (0-48 μM)
  Percent inhibition of Alamar Blue Metabolism in HCT116 cells: 19.2%
[1]; Table 2: itraconazole 28 μM + simvastatin at row conc. c1 (0-48 μM)
  Percent inhibition of Alamar Blue Metabolism in HCT116 cells: 18.6%
[1]; Table 3: itraconazole 0.87 μM + simvastatin sodium at row conc. c1 (0-22 μM)
  Percent inhibition of Alamar Blue Metabolism in HCT116 cells: −10.7%
[1]; Table 3: itraconazole 7 μM + simvastatin sodium at row conc. c1 (0-22 μM)
  Percent inhibition of Alamar Blue Metabolism in HCT116 cells: 12.2%
[1]; Table 3: itraconazole 14 μM + simvastatin sodium at row conc. c1 (0-22 μM)
  Percent inhibition of Alamar Blue Metabolism in HCT116 cells: 10.6%
[1]; Table 3: itraconazole 28 μM + simvastatin sodium at row conc. c1 (0-22 μM)
  Percent inhibition of Alamar Blue Metabolism in HCT116 cells: 17.2%
[1]; Table 7: itraconazole 0.87 μM + atorvastatin at row conc. c1 (0-36 μM)
  Percent inhibition of Alamar Blue Metabolism in HCT116 cells: 1.7%
[1]; Table 7: itraconazole 7 μM + atorvastatin at row conc. c1 (0-36 μM)
  Percent inhibition of Alamar Blue Metabolism in HCT116 cells: 17.4%
[1]; Table 7: itraconazole 14 μM + atorvastatin at row conc. c1 (0-36 μM)
  Percent inhibition of Alamar Blue Metabolism in HCT116 cells: 18.1%
[1]; Table 7: itraconazole 28 μM + atorvastatin at row conc. c1 (0-36 μM)
  Percent inhibition of Alamar Blue Metabolism in HCT116 cells: 18.6%
[1]; Table 11: itraconazole 0.87 μM + fluvastatin at row conc. c1 (0-49 μM)
  Percent inhibition of Alamar Blue Metabolism in HCT116 cells: 2.2%
[1]; Table 11: itraconazole 7 μM + fluvastatin at row conc. c1 (0-49 μM)
  Percent inhibition of Alamar Blue Metabolism in HCT116 cells: 18.9%
[1]; Table 11: itraconazole 14 μM + fluvastatin at row conc. c1 (0-49 μM)
  Percent inhibition of Alamar Blue Metabolism in HCT116 cells: 20.2%
[1]; Table 11: itraconazole 28 μM + fluvastatin at row conc. c1 (0-49 μM)
  Percent inhibition of Alamar Blue Metabolism in HCT116 cells: 20.4%
[1]; Table 14: itraconazole 0.87 μM + lovastatin at row conc. c1 (0-48 μM)
  Percent inhibition of Alamar Blue Metabolism in HCT116 cells: 5.1%
[1]; Table 14: itraconazole 7 μM + lovastatin at row conc. c1 (0-48 μM)
  Percent inhibition of Alamar Blue Metabolism in HCT116 cells: 17.8%
[1]; Table 14: itraconazole 14 μM + lovastatin at row conc. c1 (0-48 μM)
  Percent inhibition of Alamar Blue Metabolism in HCT116 cells: 19.5%
[1]; Table 14: itraconazole 28 μM + lovastatin at row conc. c1 (0-48 μM)
  Percent inhibition of Alamar Blue Metabolism in HCT116 cells: 20.7%
[1]; Table 15: itraconazole 0.87 μM + lovastatin sodium at row conc. c1 (0-22 μM)
  Percent inhibition of Alamar Blue Metabolism in HCT116 cells: −10.9%
[1]; Table 15: itraconazole 7 μM + lovastatin sodium at row conc. c1 (0-22 μM)
  Percent inhibition of Alamar Blue Metabolism in HCT116 cells: 18.0%
[1]; Table 15: itraconazole 14 μM + lovastatin sodium at row conc. c1 (0-22 μM)
  Percent inhibition of Alamar Blue Metabolism in HCT116 cells: 15.1%
[1]; Table 15: itraconazole 28 μM + lovastatin sodium at row conc. c1 (0-22 μM)
  Percent inhibition of Alamar Blue Metabolism in HCT116 cells: 9.1%
[2]; Table 5: itraconazole 0.87 μM + simvastatin at row conc. c1 (0-48 μM)
  Percent inhibition of Alamar Blue Metabolism in SKMEL-28 cells: 1.0%
[2]; Table 5: itraconazole 7 μM + simvastatin at row conc. c1 (0-48 μM)
  Percent inhibition of Alamar Blue Metabolism in SKMEL-28 cells: 13.5%
[2]; Table 5: itraconazole 14 μM + simvastatin at row conc. c1 (0-48 μM)
  Percent inhibition of Alamar Blue Metabolism in SKMEL-28 cells: 19.3%
[2]; Table 5: itraconazole 28 μM + simvastatin (0-48 μM)
  Percent inhibition of Alamar Blue Metabolism in SKMEL-28 cells: 16.7%
[2]; Table 9: itraconazole 0.87 μM + atorvastatin at row conc. c1 (0-36 μM)
  Percent inhibition of Alamar Blue Metabolism in SKMEL-28 cells: 1.4%
[2]; Table 9: itraconazole 7 μM + atorvastatin at row conc. c1 (0-36 μM)
  Percent inhibition of Alamar Blue Metabolism in SKMEL-28 cells: 11.2%
[2]; Table 9: itraconazole 14 μM + atorvastatin at row conc. c1 (0-36 μM)
  Percent inhibition of Alamar Blue Metabolism in SKMEL-28 cells: 13.0%
[2]; Table 9: itraconazole 28 μM + atorvastatin at row conc. c1 (0-36 μM)
  Percent inhibition of Alamar Blue Metabolism in SKMEL-28 cells: 13.5%
[2]; Table 13: itraconazole 0.87 μM + fluvastatin at row conc. c1 (0-49 μM)
  Percent inhibition of Alamar Blue Metabolism in SKMEL-28 cells: 2.8%
[2]; Table 13: itraconazole 7 μM + fluvastatin at row conc. c1 (0-49 μM)
  Percent inhibition of Alamar Blue Metabolism in SKMEL-28 cells: 11.3%
[2]; Table 13: itraconazole 14 μM + fluvastatin at row conc. c1 (0-49 μM)
  Percent inhibition of Alamar Blue Metabolism in SKMEL-28 cells: 13.3%
[2]; Table 13: itraconazole 28 μM + fluvastatin at row conc. c1 (0-49 μM)
  Percent inhibition of Alamar Blue Metabolism in SKMEL-28 cells: 16.3%
[3]; itraconazole 0.87 μM + simvastatin at row conc. c1 (0-48 μM)
  Percent inhibition of Alamar Blue Metabolism in A549 cells: 13.5%
[3]; itraconazole 7 μM + simvastatin at row conc. c1 (0-48 μM)
  Percent inhibition of Alamar Blue Metabolism in A549 cells: 4.0%
[3]; itraconazole 14 μM + simvastatin at row conc. c1 (0-48 μM)
  Percent inhibition of Alamar Blue Metabolism in A549 cells: 13.3%
[3]; itraconazole 28 μM + simvastatin at row conc. c1 (0-48 μM)
  Percent inhibition of Alamar Blue Metabolism in A549 cells: 13.9%
[4]; Table 4: itraconazole 0.87 μM + simvastatin at row conc. c1 (0-48 μM)
  Percent inhibition of Alamar Blue Metabolism in PANC1 cells: 2.6%
[4]; Table 4: itraconazole 7 μM + simvastatin at row conc. c1 (0-48 μM)
  Percent inhibition of Alamar Blue Metabolism in PANC1 cells: −2.6%
[4]; Table 4: itraconazole 14 μM + simvastatin at row conc. c1 (0-48 μM)
  Percent inhibition of Alamar Blue Metabolism in PANC1 cells: 2.1%
[4]; Table 4: itraconazole 28 μM + simvastatin at row conc. c1 (0-48 μM)
  Percent inhibition of Alamar Blue Metabolism in PANC1 cells: 1.7%
[4]; Table 8: itraconazole 0.87 μM + atorvastatin at row conc. c1 (0-36 μM)
  Percent inhibition of Alamar Blue Metabolism in PANC1 cells: 9.8%
[4]; Table 8: itraconazole 7 μM + atorvastatin at row conc. c1 (0-36 μM)
  Percent inhibition of Alamar Blue Metabolism in PANC1 cells: −0.6%
[4]; Table 8: itraconazole 14 μM + atorvastatin at row conc. c1 (0-36 μM)
  Percent inhibition of Alamar Blue Metabolism in PANC1 cells: −4.4%
[4]; Table 8: itraconazole 28 μM + atorvastatin at row conc. c1 (0-36 μM)
  Percent inhibition of Alamar Blue Metabolism in PANC1 cells: −2.5%
[4]; Table 12: itraconazole 0.87 μM + fluvastatin at row conc. c1 (0-49 μM)
  Percent inhibition of Alamar Blue Metabolism in PANC1 cells: 4.9%
[4]; Table 12: itraconazole 7 μM + fluvastatin at row conc. c1 (0-49 μM)
  Percent inhibition of Alamar Blue Metabolism in PANC1 cells: −1.9%
[4]; Table 12: itraconazole 14 μM + fluvastatin at row conc. c1 (0-49 μM)
  Percent inhibition of Alamar Blue Metabolism in PANC1 cells: −8.1%
[4]; Table 12: itraconazole 28 μM + fluvastatin at row conc. c1 (0-49 μM)
  Percent inhibition of Alamar Blue Metabolism in PANC1 cells: −3.7%
[5]; Table 6: itraconazole 0.87 μM + atorvastatin at row conc. c1 (0-36 μM)
  Percent inhibition of Alamar Blue Metabolism in DU145 cells: 0.8%
[5]; Table 6: itraconazole 7 μM + atorvastatin at row conc. c1 (0-36 μM)
  Percent inhibition of Alamar Blue Metabolism in DU145 cells: −3.5%
[5]; Table 6: itraconazole 14 μM + atorvastatin at row conc. c1 (0-36 μM)
  Percent inhibition of Alamar Blue Metabolism in DU145 cells: −4.2%
[5]; Table 6: itraconazole 28 μM + atorvastatin at row conc. c1 (0-36 μM)
  Percent inhibition of Alamar Blue Metabolism in DU145 cells: −8.8%
[5]; Table 10: itraconazole 0.87 μM + fluvastatin at row conc. c1 (0-49 μM)
  Percent inhibition of Alamar Blue Metabolism in DU145 cells: 2.1%
[5]; Table 10: itraconazole 7 μM + fluvastatin at row conc. c1 (0-49 μM)
  Percent inhibition of Alamar Blue Metabolism in DU145 cells: −7.4%
[5]; Table 10: itraconazole 14 μM + fluvastatin at row conc. c1 (0-49 μM)
  Percent inhibition of Alamar Blue Metabolism in DU145 cells: −5.6%
[5]; Table 10: itraconazole 28 μM + fluvastatin at row conc. c1 (0-49 μM)
  Percent inhibition of Alamar Blue Metabolism in DU145 cells: −9.0%

Reference: US20060241122A1, “Combination therapy for the treatment of neoplasms” (priority 2003, published 2006)
